# From patent US20190105367A1, “ANTIMICROBIAL 4-OXOQUINOLIZINES” (Emergent Product Development Gaithersburg Inc., priority 2011, published 2019)
# Where two headings read alike, the source gives them in different places.
# Columns and labels:
# [1] = tested on: A. baumannii A489; assay: Preliminary MBC without and with sub-inhibitory polymyxin B (Example 4); type: cell-based, Acinetobacter baumannii; conditions: Acinetobacter baumannii, preliminary MBC
# [2] = tested on: A. baumannii A14; assay: MIC without and with sub-inhibitory polymyxin B (Example 4); type: cell-based, Acinetobacter baumannii; conditions: 1st experiment
# [3] = tested on: A. baumannii J2; assay: as above; type: cell-based, Acinetobacter baumannii; conditions: for MIC without PB/MIC + PB: A. baumannii J2; for MIC: Acinetobacter baumannii
# [4] = tested on: Acinetobacter sp. (H064200250); assay: Preliminary MBC without and with sub-inhibitory polymyxin B (Example 4); type: cell-based; conditions: Acinetobacter, preliminary MBC
# Outline: (§1)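 Plates were incubated for 18-20 hours at 37° C. MBC was taken as the lowest concentration giving colony growth ca. 90% below the positive control, typically where only single colonies or none appeared.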
# [5] = tested on: A. baumannii A489; assay: MIC without and with sub-inhibitory polymyxin B (Example 4); type: cell-based, Acinetobacter baumannii; conditions: for MIC without PB/MIC + PB: A. baumannii A489; for MIC: Acinetobacter baumannii
# [6] = tested on: A. baumannii NCTC 13301; assay: as above; type: cell-based, Acinetobacter baumannii; conditions: +[…] PB, 2nd experiment
# [7] = tested on: A. baumannii A329; assay: Preliminary MBC without and with sub-inhibitory polymyxin B (Example 4); type: cell-based, Acinetobacter baumannii; conditions: Acinetobacter baumannii, A329, A. baumannii A329, +0.06 μg/ml PB, 2nd experiment, read-out: MBC
# [8] = tested on: strains of A. baumannii and one strain of Acinetobacter sp.; assay: MIC with sub-inhibitory concentrations (0.25x MIC) of polymyxin B, panel of Acinetobacter strains (Example 4); type: cell-based
# [9] = tested on: Acinetobacter sp. (H064200250); assay: MIC without and with sub-inhibitory polymyxin B (Example 4); type: cell-based; conditions: for MIC: Acinetobacter
# [10] = tested on: A. baumannii A387; assay: as above; type: cell-based, Acinetobacter baumannii; conditions: for MIC without PB/MIC + PB: A. baumannii A387
# [11] = tested on: A. baumannii NCTC 13301; assay: Preliminary MBC without and with sub-inhibitory polymyxin B (Example 4); type: cell-based, Acinetobacter baumannii; conditions: Acinetobacter baumannii
# Outline: as §1
# [12] = tested on: A. baumannii A390; assay: as above; type: cell-based, Acinetobacter baumannii; conditions: Acinetobacter baumannii, A390, A. baumannii A390, +0.06 μg/ml PB, 2nd experiment, read-out: MBC
# Outline: as §1
# [13] = tested on: A. baumannii A14; assay: as above; type: cell-based, Acinetobacter baumannii; conditions: A. baumannii A14, +0.06 μg/ml PB, 2nd experiment
# Outline: as §1
# [14] = tested on: A. baumannii A473; assay: as above; type: cell-based, Acinetobacter baumannii; conditions: Acinetobacter baumannii, A473, A. baumannii A473, +0.06 μg/ml PB, 2nd experiment, read-out: MBC
# Outline: as §1
# [15] = tested on: A. baumannii ATCC 19606; assay: MIC without and with sub-inhibitory polymyxin B (Example 4); type: cell-based, Acinetobacter baumannii; conditions: for MIC without PB/MIC + PB: A. baumannii ATCC 19606
# [16] = tested on: A. baumannii J2; assay: Preliminary MBC without and with sub-inhibitory polymyxin B (Example 4); type: cell-based, Acinetobacter baumannii; conditions: Acinetobacter baumannii, preliminary MBC
# [17] = tested on: A. baumannii NCTC 13301; assay: MIC without and with sub-inhibitory polymyxin B (Example 4); type: cell-based, Acinetobacter baumannii
# [18] = tested on: A. baumannii A329; assay: as above; type: cell-based, Acinetobacter baumannii; conditions: +0.06 μg/ml PB, 2nd experiment
# [19] = tested on: A. baumannii A14; assay: Preliminary MBC without and with sub-inhibitory polymyxin B (Example 4); type: cell-based, Acinetobacter baumannii; conditions: A. baumannii A14; +0.06 μg/ml polymyxin B; preliminary MBC; 1st experiment
# [20] = tested on: A. baumannii A14; assay: MIC without and with sub-inhibitory polymyxin B (Example 4); type: cell-based, Acinetobacter baumannii; conditions: 2nd experiment
# [21] = tested on: A. baumannii ATCC 19606; assay: Preliminary MBC without and with sub-inhibitory polymyxin B (Example 4); type: cell-based, Acinetobacter baumannii; conditions: Acinetobacter baumannii
# [22] = tested on: A. baumannii A390; assay: MIC without and with sub-inhibitory polymyxin B (Example 4); type: cell-based, Acinetobacter baumannii; conditions: +0.06 μg/ml PB, 2nd experiment
# [23] = tested on: A. baumannii A472; assay: Preliminary MBC without and with sub-inhibitory polymyxin B (Example 4); type: cell-based, Acinetobacter baumannii; conditions: Acinetobacter baumannii, preliminary MBC
# [24] = tested on: A. baumannii A473; assay: MIC without and with sub-inhibitory polymyxin B (Example 4); type: cell-based, Acinetobacter baumannii; conditions: A. baumannii A473; +0.06 μg/ml PB; 2nd experiment
# [25] = ratio, PB 0.06 μg/ml, 1st experiment
# [26] = A. baumannii A14, +0.06 μg/ml PB
compound,measurement,setting,value
"Cc1c(-c2ccc(CN)c(F)c2)ccn2c(=O)c(C(=O)O)cc(C3CC3)c12 [Compound 4, 8-(3-fluoro-4-aminomethyl-phenyl)-1-cyclopropyl-9-methyl-4-oxo-quinolizine-3-carboxylic acid]",MBC,"[1]; A489, A. baumannii A489, +[…] PB, 2nd experiment, read-out: MBC",0.06 µg/mL
same,MBC,"[1]; A489, read-out: MBC +[…] PB, A. baumannii A489, +[…] polymyxin B, 1st experiment",1 µg/mL
same,MIC +0.06 μg/ml PB,[2]; +0.06 μg/ml polymyxin B,8 µg/mL
same,MIC without PB/MIC + PB,"[2]; ratio, PB 0.06 μg/ml",4
same,MIC without PB/MIC + PB,"[3]; +[…] PB, 2nd experiment",128
same,MIC without PB/MIC + PB,"[3]; ratio, PB […], 1st experiment",4
same,MIC,"[3]; J2, A. baumannii J2, +[…] PB, 2nd experiment, read-out: MIC",0.06 µg/mL
same,MIC,"[3]; J2, read-out: MIC +[…] PB, A. baumannii J2, +[…] polymyxin B, 1st experiment",2 µg/mL
same,MBC,"[4]; Acinetobacter spp. H064200250 (OXA51), +[…] PB, 2nd experiment, read-out: MBC",0.5 µg/mL
same,MBC,"[4]; read-out: MBC +[…] PB, Acinetobacter spp. H064200250, +[…] polymyxin B, 1st experiment",8 µg/mL
same,MIC without PB/MIC + PB,"[5]; +[…] PB, 2nd experiment",≥512
same,MIC without PB/MIC + PB,"[5]; ratio, PB […], 1st experiment",8
same,MIC,"[5]; A489, A. baumannii A489, +[…] PB, 2nd experiment, read-out: MIC",≤ 0.03 µg/mL
same,MIC,"[5]; A489, read-out: MIC +[…] PB, A. baumannii A489, +[…] polymyxin B, 1st experiment",1 µg/mL
same,MIC without PB/MIC + PB,[6]; A. baumannii NCTC 13301,128
same,MIC,"[6]; Acinetobacter baumannii, NCTC13301, A. baumannii NCTC 13301, read-out: MIC",0.25 µg/mL
same,MBC,[7],8 µg/mL
same,"Range ratios MIC without PB/MIC with PB Oct. 1, 2008 n = 8",[8]; 1st experiment,2-8
same,"MIC range with PB (0.25x MIC) Oct. 1, 2008 n = 8","[8]; 1st experiment, […] polymyxin B, ATCC 19606, A329, A390 and A473 not taken",1 to 8 µg/mL
same,"Range ratios MIC without PB/MIC with PB Oct. 14, 2008 n = 11",[8]; 2nd experiment,1-16
same,"MIC range with PB (0.25x MIC) Oct. 14, 2008 n = 11","[8]; 2nd experiment, 0.06 μg/ml polymyxin B, all strains except the ATCC strain",0.5 to 8 µg/mL
same,MIC without PB/MIC + PB,"[9]; Acinetobacter spp. H064200250 (OXA51), +[…] PB, 2nd experiment",64
same,MIC without PB/MIC + PB,"[9]; Acinetobacter spp. H064200250, ratio, PB […], 1st experiment",4
same,MIC,"[9]; Acinetobacter spp. H064200250 (OXA51), +[…] PB, 2nd experiment, read-out: MIC",0.5 µg/mL
same,MIC,"[9]; read-out: MIC +[…] PB, Acinetobacter spp. H064200250, +[…] polymyxin B, 1st experiment",4 µg/mL
same,MIC without PB/MIC + PB,"[10]; +0.06 μg/ml PB, 2nd experiment",8
same,MIC without PB/MIC + PB,[10]; [25],2
same,MIC,"[10]; Acinetobacter baumannii, A387, read-out: MIC +0.06 μg/ml PB, A. baumannii A387, +0.06 μg/ml polymyxin B, 1st experiment",1 µg/mL
same,MBC,"[11]; NCTC13301, A. baumannii NCTC 13301, +[…] PB, preliminary MBC, 2nd experiment, read-out: MBC",0.25 µg/mL
same,MBC,"[11]; NCTC13301, read-out: MBC +[…] PB",0.5 µg/mL
same,MBC,[12],0.5 µg/mL
same,MBC,[13],8 µg/mL
same,MBC,[14],0.25 µg/mL
same,MIC without PB/MIC + PB,"[15]; +0.06 μg/ml PB, 2nd experiment",≥16
same,MIC without PB/MIC + PB,[15]; [25],2
same,MIC,"[15]; Acinetobacter baumannii, ATCC19606, read-out: MIC +0.06 μg/ml PB, A. baumannii ATCC 19606, +0.06 μg/ml polymyxin B, 1st experiment",0.125 µg/mL
same,MBC,"[16]; J2, A. baumannii J2, +[…] PB, 2nd experiment, read-out: MBC",0.06 µg/mL
same,MBC,"[16]; J2, read-out: MBC +[…] PB, A. baumannii J2, +[…] polymyxin B, 1st experiment",1 µg/mL
same,MIC without PB/MIC + PB,"[17]; A. baumannii NCTC 13301, ratio, PB […], 1st experiment",8
same,MIC,"[17]; Acinetobacter baumannii, NCTC13301, read-out: MIC +[…] PB",1 µg/mL
same,MIC without PB/MIC + PB,[18]; A. baumannii A329,2
same,MIC,"[18]; Acinetobacter baumannii, A329, A. baumannii A329, read-out: MIC",8 µg/mL
same,MBC +0.06 μg/ml PB,[19],8 µg/mL
same,MIC,[20]; [26],2 µg/mL
same,MIC without PB/MIC + PB,[20]; [26],16
same,MIC,"[20]; Acinetobacter baumannii, A14, A. baumannii A14, without PB, read-out: MIC",32 µg/mL
same,MBC,"[21]; ATCC19606, A. baumannii ATCC 19606, +0.06 μg/ml PB, 2nd experiment, read-out: MBC",≤ 0.03 µg/mL
same,MBC,"[21]; ATCC19606, read-out: MBC +0.06 μg/ml PB, A. baumannii ATCC 19606, +0.06 μg/ml polymyxin B, 1st experiment",0.06 µg/mL
same,MIC without PB/MIC + PB,[22]; A. baumannii A390,64
same,MIC,"[22]; Acinetobacter baumannii, A390, A. baumannii A390, read-out: MIC",0.5 µg/mL
same,MBC,"[23]; A472, A. baumannii A472, +[…] PB, 2nd experiment, read-out: MBC",0.125 µg/mL
same,MBC,"[23]; A472, read-out: MBC +[…] PB, A. baumannii A472, +[…] polymyxin B, 1st experiment",1 µg/mL
same,MIC,[24],0.25 µg/mL
same,MIC without PB/MIC + PB,[24],32
